The results in this text go back to article PMC8011081, “Bio-guided isolation of anti-leishmanial natural products from Diospyros gracilescens L. (Ebenaceae)” (BMC Complementary Medicine and Therapies, 2021).

Data set [1] relates to L. donovani promastigotes (MHOM/SD/62/1S). Nature of the data set: Inhibitory assay against L. donovani promastigotes (resazurin colorimetric assay). It is filed as cell-based. The conditions noted are these: Leishmania donovani, mean ± SD, triplicate. As for the experimental part:
The cryopreserved promastigote form of L. donovani (1S (MHOM/SD/62/1S) was obtained from Bei Resources (https://www.beiresources.org/) and is routinely cultured at the Antimicrobial and Biocontrol Agents Unit, University of Yaoundé I, in Medium 199 (Sigma, Darmstadt, Germany) supplemented with 10% Heat-Inactivated fetal Bovine Serum (HIFBS) (Sigma, Darmstadt, Germany) and 100 IU/mL penicillin and 100 μg/mL streptomycin. The culture was maintained in 75 Cm^2 cell culture flask at 28 °C and checked for growth daily and sub-cultured everyday 72 h.
The stock solutions were prepared by dissolving each sample in 100% dimethyl sulfoxide (DMSO) and subsequently diluted serially in non-supplemented culture medium. […] The viability rate of promastigotes positively correlated with the amount of pink resorufin that was produced through the reduction of blue resazurin by the dehydrogenase enzymes in the inner mitochondrial membrane of the living parasites. Briefly, promastigotes from a logarithmic phase culture (4 × 10^5 cells/mL; 90 μL) were seeded in 96-well microtiter plates and were treated with 10 μl of inhibitors at different triplicate concentrations ranging 100 μg/mL-0.16 μg/mL for extracts and fractions and 50 μg/mL-0.08 μg/mL for compounds. The final concentration of DMSO in each well was not higher than 1%. Plates were incubated for 28 h at 28 °C, followed by the addition of 1 mg/mL resazurin (Sigma, Darmstadt, Germany). […] After an additional incubation for 44 h, plates were then read on a Magelan Infinite M200 fluorescence multi-well plate reader (Tecan, Männedorf, Switzerland) at an excitation and emission wave lengths of 530 and 590 nm respectively.
On the technique in general: Resazurin is reduced to fluorescent resorufin, in cell work by metabolically active cells.

In the next data set the test system is L. donovani amastigotes. Nature of the data set: Inhibitory assay against intracellular L. donovani amastigotes in Raw 264.7 macrophages (resazurin). The conditions noted are these: Leishmania donovani, RAW264.7, isolated compounds, mean ± SD. It counts as cell-based. As for the experimental part:
The effect of plant isolates against the intracellular amastigote form of L. donovani was evaluated essentially as described by Jain et al. with some modifications. Briefly, macrophage Raw 264.7 cells ([…]) were seeded in 96 well plates and incubated for 6 h at 37 °C under 5% CO2 for adhesion of the cells. Afterwards, the non-adherent cells were washed-out with sterile PBS. The adherent Raw 264.7 cells were infected with metacyclic promastigotes (4 × 10^5 cells) at an infection ratio of 1:10 macrophage: parasites and incubated for 24 h at 37 °C under 5% CO2 in order to allow infection of macrophages by metacyclic promastigotes. Thereafter, the overlying medium was removed, and the monolayer cells with internalized amastigotes were carefully washed four times with PBS to remove free parasites. Freshly prepared M199 medium containing 10% FBS and the test extracts were added in triplicate to the infected cells at serially diluted concentrations and incubated for 48 h at 37 °C under 5% CO2. After incubation, 0.05% Sodium dodecyl sulfate (SDS) was added in each well for 30 s for controlled lysis followed by M199 with 10% FBS as macrophage lysis stopper. Resazurin reagent (250 μg/mL) was thereafter added in each well and the plates were incubated for 24 h followed by fluorescence recording at λexcitation = 530 nm and λemission = 590 nm using a Tecan Infinite M200 microplate reader (Tecan). Inhibition percentages were calculated using Microsoft Excel Software and median inhibitory concentration (IC50) obtained from dose-response curves using GraphPad Prism 5.0. Software.

Another data set can be described thus: in vitro. The settings on record: mouse. As for the experimental part:
The cytotoxicity profile of extracts, fractions and compounds was assessed using the Alamar blue assay against Raw 264.7 cells duly cultivated in complete Dulbecco’s Modified Eagle’s Medium (DMEM) containing 13.5 g/L DMEM (Sigma Aldrich), 10% fetal Bovine Serum (Sigma Aldrich), 0.2% sodium bicarbonate (w/v) (Sigma, Darmstadt, Germany) and 50 μg/mL gentamycin (Sigma Aldrich). Globally, macrophages were seeded into 96-wells cell-culture flat-bottomed plates at a density of 10^4 cells in final volume of 100 μL of complete medium/well and incubated for 24 h at 37 °C, 5% CO2, 70% RH in a ICO 105 memmert incubator (memmert, Schwabach, Germany) to allow cell adhesion. Ten μL of each serially diluted test sample were added in triplicate wells and assay plates were then incubated for 48 h in the same experimental conditions. Growth control consisted of 0.1%DMSO (100% growth) and positive control of podophyllotoxin (Sigma, Darmstadt, Germany) at 20 μM. Cell proliferation was checked by adding 10 μL of a stock solution of resazurin (0.15 mg/mL in sterile PBS) to each well followed by plates incubation during 4 h. Fluorescence was then read on a Tecan Infinite M200 fluorescence multi-well plate reader at an excitation/emission of 530/590 nm. […] Selectivity indices (CC50/IC50, defining the balance between cytotoxicity and antileishmanial activity) were calculated for each test substance.

Data set [2] deals with L. donovani promastigotes. Nature of the data set: Concentration/time inhibition (kill) kinetics, trypan blue counting. It is filed as cell-based, Leishmania donovani.
Description: The number of viable parasites was determined after every 24 h over 120 h by staining with trypan blue. Quantification of viable parasites was achieved by counting the parasites with clear cytoplasm (non-stained) using a Neubauer hemocytometer with cover slips. Three independent experiments were performed for each sample.
The mark [3] stands for this setting: isolated compounds, read-out: IC50 (Promastigotes).

Read-outs that look alike come from different tables or passages of the source.

Regarding `C=C(C)[C@@H]1CC[C@]2(C(=O)O)CC[C@]3(C)[C@H](CC[C@@H]4[C@@]5(C)CC[C@H](O)C(C)(C)[C@@H]5CC[C@]43C)[C@@H]12` [Betulinic acid (3), Betulinic acid], the IC50 in data set [1] (setting [3]) amounted to 13.69 ± 0.07 µM; with L. donovani amastigotes it was 18.46 ± 0.01 µM. Moreover, in the data set “in vitro”, the CC50 is 82.39 ± 0.09 µM.

`OC1CC(O)C(O)C(O)C1O` (centres unmarked) [1-deoxyinositol (7), 1-deoxyinositol]: the IC50 in data set [1] (setting [3]) amounted to 241.71 ± 0.16 µM; in the data set with L. donovani amastigotes it was 120 ± 0.18 µM. Besides, the CC50 in the data set “in vitro” was > 1220 µM.

For the compound `C=C(C)[C@@H]1CC[C@]2(C)CC[C@]3(C)[C@H](CC[C@@H]4[C@@]5(C)CC[C@H](O)C(C)(C)[C@@H]5CC[C@]43C)[C@@H]12` [Lupeol (1), Lupeol], the figures for the IC50 (in data set [1] (setting [3]); with L. donovani amastigotes) were 23.22 ± 0.08 µM and 46.7 ± 0.65 µM, respectively. Further, the CC50 at 48 h in the data set “in vitro” (Raw 264.7 cells (macrophages)) came out at 19.3 ± 0.3 µM.

With `C[C@@H]1[C@H](O)[C@@H](C)/C=C/C=C/C=C/C=C/C=C/C=C/C=C/[C@H](O[C@@H]2O[C@H](C)[C@@H](O)[C@H](N)[C@@H]2O)C[C@@H]2O[C@](O)(C[C@@H](O)C[C@@H](O)[C@H](O)CC[C@@H](O)C[C@@H](O)CC(=O)O[C@H]1C)C[C@H](O)[C@H]2C(=O)O` [Amphotericin B, reference compound], the “Effect on promastigote replication / growth” value in data set [2] (0.5x IC50, IC50, 2x IC50, 4x IC50, viable parasites counted every 24 h) is “significant reduction in promastigote replication after 24 h”. Moreover, the Cidal effect entry in data set [2] (all tested concentrations, exposure up to 120 h) is listed as “no evidence of cidal effect”. Moreover, the IC50 worked out at 0.34 ± 0.22 µg/mL in data set [1] (crude extracts, H20: EtOH, read-out: Promastigote of L. donovani (MHOM/SD/62/1S) IC50 ± SD); 0.37 ± 0.22 µM in data set [1] (setting [3]); 0.34 ± 0.22 µg/mL in data set [1] (trunk extract and fractions, read-out: IC50 (Promastigotes)).

As to `CCC(CCC(C)C1CCC2C3CC=C4CC(OC5OC(CO)C(O)C(O)C5O)CCC4(C)C3CCC12C)C(C)C` [β-sitosterol glucoside (6), β-sitosterol 3-O-D-glucopyranoside], the IC50 in data set [1] (setting [3]) amounted to 49.34 ± 0.12 µM; in the data set with L. donovani amastigotes it was 32 ± 0.22 µM. In “in vitro”, this compound yielded a CC50 at 48 h of 28.6 ± 0.07 µM.
